Test results: US20090068143A1, “ORALLY EFFECTIVE C[…]” (priority 2005, published 2009)
Marks after values point to notes of the source that are not given here.

How the values were obtained:
IFN-γ = test: Real-time RT-PCR gene expression in CNS of MOG induced EAE: IFN-γ; format: in vivo, mouse; settings: 40 mg/kg p.o., day 31, over naive animals
Experimental: (§1) Total RNA is prepared using SV total RNA isolation system (Promega). The brains and spinal cords, which were removed on day 31 from five animals treated with vehicle (i.e. untreated) or 40 mg/kg p.o. of compound 18F (i.e. treated) in the MOG-induced EAE study, were homogenized in lysis buffer. The lysates were transferred to an RNA isolation column, treated with DNAse, washed and eluted according to kit instructions. RNA concentrations were determined using GeneQuant II (Pharmacia-Amersham). Complementary DNA (cDNA) was synthesized from total RNA using […] II reverse transcriptase (Life Technologies). […] Quantitative real-time RT-PCR included 1 μl of the cDNA, 300 nM of the appropriate forward and reverse primers (according to the gene monitored) and 7.5 μl of the reaction mix containing buffer, nucleotides, Taq polymerase and SYBER green (SYBER Green master mix, Applied Biosystems), in a total reaction volume of 15 μl. […] During each annealing step, the amount of the amplified product was measured by the fluorescence of the double strand DNA binding dye, SYBER Green. The cycle of threshold (CT), representing the PCR cycle at which an increase in fluorescence above a baseline signal can be first detected, was determined for each product. […] Results were expressed as fold increase of gene expression in treated or untreated animals above the naive animals. […]

inflammatory pain = test: Inflammatory pain and paw edema, λ carrageenan; format: in vivo, Sprague Dawley rats; settings: for ΔLT between hind paws, thermal stimulus: 3 hours; for reduction of delta force between paws, tactile stimulus: vehicle 31 g
Experimental: Male Sprague Dawley rats (average body weight 200 g, Harlan, Israel) were transiently sedated by placement on dry ice for the duration of the injections. Rats were injected subcutaneously, in the subplantar region of one (right) paw with 0.1 ml of 2% w/v λ Carrageenan in sterile saline. […] Test compounds were administered p.o. by oral gavage immediately after the carrageenan injection as pretreatment. Vehicle (PB) treated animals were used as controls. Before induction of inflammatory pain and three hours after injection, the animals reactions to pain stimuli were tested in two systems. The first stimulus was thermal and assessed by the Plantar Test according to Hargreaves, using Ugo Basile Model 7370. The scale was set to an intensity of 50 arbitrary units. The latency time till the animal lift a paw as a reaction to the thermal stimulus was recorded for both the inflamed and non-inflamed hind paws. The second stimulus was mechanical (tactile) and assessed using a Dynamic Plantar Sesthesiomether (Ugo Basile Model 73400-002). […] Finally, the impact on paw edema was assessed. Paw thickness is measured using a dial thickness gauge (Spring-dial, constant low pressure gauge, Mitutoyo, TG/L-1, 0.00 mm) and paw volume is measured using a plethysmometer (model #7150, Ugo Basile, Italy). At the end of the study, animals were euthanized with an i.p. injection of 100 mg/kg pentobarbitone.
The results are measured as the differences between the two hind paws at time 0 and 3 hours both as ALT, for the latency time in the thermal part of the study, and as ΔForce, for the mechanical part of the study. The paw volume is expressed as percent from vehicle treated animals. Results are expressed as mean±SEM for each treatment group and the differences among those groups are analyzed by analysis of variance (ANOVA) followed by post-hoc Tukey's test. A value of p<0.05 was considered to be statistically significant and is indicated on the figure by an asterisk over the relevant treatment group.

CB1 receptor = CB1 receptor (Homo sapiens, UniProt P21554); test: CB1 binding assay
CB1 receptor, sequence (P21554 whole entry): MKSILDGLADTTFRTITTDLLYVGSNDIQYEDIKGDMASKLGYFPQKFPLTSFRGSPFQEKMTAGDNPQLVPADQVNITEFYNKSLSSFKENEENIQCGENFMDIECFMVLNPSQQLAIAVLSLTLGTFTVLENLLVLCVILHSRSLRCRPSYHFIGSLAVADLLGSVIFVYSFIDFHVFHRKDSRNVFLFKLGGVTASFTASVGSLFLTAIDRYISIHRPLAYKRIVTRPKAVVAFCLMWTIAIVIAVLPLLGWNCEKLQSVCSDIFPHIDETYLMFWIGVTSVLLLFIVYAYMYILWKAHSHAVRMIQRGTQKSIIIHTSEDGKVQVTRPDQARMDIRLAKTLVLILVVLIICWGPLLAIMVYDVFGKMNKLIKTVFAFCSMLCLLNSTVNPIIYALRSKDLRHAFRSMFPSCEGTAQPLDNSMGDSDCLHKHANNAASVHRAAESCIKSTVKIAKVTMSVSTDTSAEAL

IL-1β = test: Real-time RT-PCR gene expression in CNS of MOG induced EAE: IL-1β; format: in vivo, mouse
Experimental: Total RNA is prepared using SV total RNA isolation system (Promega). The brains and spinal cords, which were removed on day 31 from five animals treated with vehicle (i.e. untreated) or 40 mg/kg p.o. of compound 18F (i.e. treated) in the MOG-induced EAE study, were homogenized in lysis buffer. The lysates were transferred to an RNA isolation column, treated with DNAse, washed and eluted according to kit instructions. RNA concentrations were determined using GeneQuant II (Pharmacia-Amersham). Complementary DNA (cDNA) was synthesized from total RNA using […] II reverse transcriptase (Life Technologies). 2 μg of total RNA were combined with an oligo (dT)15 primer, 0.5 mM dNTP mix, 8 units of reverse transcriptase and other reaction components up to a final volume of 20 μl, according to the kit instructions. The reaction mixture was incubated at 42° C. for 45 min and inactivated at 70° C. for 15 minutes. Quantitative real-time RT-PCR included 1 μl of the cDNA, 300 nM of the appropriate forward and reverse primers (according to the gene monitored) and 7.5 μl of the reaction mix containing buffer, nucleotides, Taq polymerase and SYBER green (SYBER Green master mix, Applied Biosystems), in a total reaction volume of 15 μl. Gene amplification was obtained using the GeneAmp 5700 sequence detection system (Applied Biosystems). […] During each annealing step, the amount of the amplified product was measured by the fluorescence of the double strand DNA binding dye, SYBER Green. The cycle of threshold (CT), representing the PCR cycle at which an increase in fluorescence above a baseline signal can be first detected, was determined for each product. […] Results were expressed as fold increase of gene expression in treated or untreated animals above the naive animals. […]
The results expressed as folds gene expression over naive animals (following normalization to Cyclophilin) are compiled in the following table. […] Statistical significance was analyzed by unpaired two-tailed t-test and one asterisk (*) indicates statistical significance of p<0.05, whereas ** indicates statistical significance of p<0.01.

F4/80 = test: Real-time RT-PCR gene expression in CNS of MOG induced EAE: F4/80; format: in vivo, mouse; settings: 40 mg/kg p.o., day 31; over naive animals
Experimental: as §1

[1] = test system: MOG induced chronic progressive EAE; test: MOG induced chronic-progressive EAE; settings: for animals that reached a clinical score of 0 (fully recovered): 13 animals per group

CCCCCCC(C)(C)c1cc(O)c([C@H]2CC(=O)C3CC2C3(C)C)c(OC(=O)/C=C/C(=O)O)c1 (single isomer, unassigned; (-)) [Compound 18F, (−)-4-{4-[1,1-Dimethylheptyl]-2-fumarate-6-hydroxy-phenyl}-6,6-dimethyl-bicyclo[3.1.1]heptan-2-one]
Fold gene expression IFN-γ, Spinal Cord, Treated (IFN-γ): 3 fold
Fold gene expression IFN-γ, Brain, Treated (IFN-γ; untreated −9): 1* fold
decrease in paw volume (inflammatory pain; 10 mg/kg p.o.): 6%
percent reduction of delta force, tactile stimulus (inflammatory pain; 10 mg/kg p.o.): 23%
reduction of ΔLT, thermal stimulus (inflammatory pain; 10 mg/kg p.o.): no reduction
ΔLT between hind paws, thermal stimulus (inflammatory pain; 10 mg/kg p.o., vehicle about 7.5): 7.5 s
decrease in paw volume (inflammatory pain; 20 mg/kg p.o.): 18%
paw volume, percent of vehicle (inflammatory pain; 20 mg/kg p.o.): 82%
reduction of ΔLT, thermal stimulus (inflammatory pain; 20 mg/kg p.o.): 69%
ΔLT between hind paws, thermal stimulus (inflammatory pain; 20 mg/kg p.o.): 2.3 s
reduction of delta force between paws, tactile stimulus (inflammatory pain; 20 mg/kg p.o.): 18 g
reduction of ΔLT, thermal stimulus (inflammatory pain; 30 mg/kg p.o.): 88%
ΔLT between hind paws, thermal stimulus (inflammatory pain; 30 mg/kg p.o.): 0.9 s
decrease in paw volume (inflammatory pain; 30 mg/kg p.o., significant): 52%
reduction of delta force between paws, tactile stimulus (inflammatory pain; 30 mg/kg p.o.): 19 g
percent reduction of delta force, tactile stimulus (inflammatory pain; 20 and 30 mg/kg p.o.): about 60%
reduction in Δforce, mechanical stimulus (inflammatory pain; single dose of 20 mg/kg p.o.): 58%
IC50 (CB1 receptor): 334 nM
Fold gene expression IL-1β, Brain, Treated (IL-1β; 40 mg/kg p.o., day 31, over naive animals, untreated 5.5): 3* fold
Fold gene expression IL-1β, Spinal Cord, Treated (IL-1β; 40 mg/kg p.o., day 31, over naive animals, untreated 11): 4* fold
IL-1β overexpression in brain and spinal cord (IL-1β; treated p.o., untreated 5 to 11-fold): 3-4 fold
Fold gene expression F4/80, Brain, Treated (F4/80): 1.5 fold
Fold gene expression F4/80, Spinal Cord, Treated (F4/80): 5.5 fold
reduction of clinical score, first peak day 14 to 25 ([1]; 20 mg/kg p.o. daily for 19 days from day 13): about 12%
animals that reached a clinical score of 0 (fully recovered) ([1]; 20 mg/kg p.o.): 8%
reduction of clinical score, first peak day 14 to 25 ([1]; 40 mg/kg p.o. daily for 19 days from day 13): 43%
animals that reached a clinical score of 0 (fully recovered) ([1]; 40 mg/kg p.o.): 23%
clinical score for about a week from day 36 ([1]; 60 mg/kg p.o.): about 0.2
reduction of clinical score as compared to control, week from day 36 ([1]; 60 mg/kg p.o.): 80%
reduction of clinical score, first peak day 14 to 25 ([1]; 60 mg/kg p.o. daily for 19 days from day 13): 44%
animals that reached a clinical score of 0 (fully recovered) ([1]; 60 mg/kg p.o.): 31%
clinical score below control at the end of the study ([1]; 60 mg/kg p.o., 20 days after treatment cessation): 30%
clinical score at the end of the study ([1]; 60 mg/kg p.o., 20 days after treatment cessation, control 0.95): 0.65
plateau level clinical score ([1]; 60 mg/kg p.o., control about 1.2): about 0.6
side effects ([1]; high doses p.o., first 10 minutes post administration, eliminated from day 4): Some minor and transient side effects were observed
day of first full recovery ([1]; highest dose (60 mg/kg p.o.), treatment from day 13): 16 days
day of first full recovery ([1]; intermediate dose (40 mg/kg p.o.)): 17 days
day of first full recovery ([1]; lowest dose (20 mg/kg p.o.)): 22 days
reduction of AUC as compared to control group ([1]; separate study, 40 mg/kg p.o.): 36%
AUC of clinical score ([1]; separate study, daily from day 13, 18F 40 mg/kg p.o., COP-1 25 mg/kg s.c., IFN-β 10,000 IU per mouse s.c., control 24.14): 15.47 units
mean group clinical score at the end of the study ([1]; separate study, daily from day 13, 18F 40 mg/kg p.o., COP-1 25 mg/kg s.c., control above 2.4): 1.25
